“Also recorded” adds a separate entry of the source.
How the values were obtained:
[1] = pH of the nebulizer solution; assay type: physicochemical; settings: 20 mg/ml in sterile water
Protocol: (§1) Vehicle (sterile water) was given twice daily by inhalation (15 minutes) followed by intranasal instillation of water (2×250 μl in each nostril). […] The test-article and the compound solution were prepared in the morning of each treatment day. Vehicle and test-article were administered by inhalation and intranasal instillation twice a day. Dosing of vehicle or test compound was achieved by utilizing a face mask connected to a jet nebulizer for inhalation delivery followed by intranasal instillation in both nostrils using an Accuspray device.
Treatment occurred on Days 0 to 5 (only AM on Day 5). Vehicle and compound were delivered in the morning (8:15-9:10 am) and the afternoon (2:00-3:30 pm). On days when acoustic rhinometry procedures were performed (Days 0), the morning dosing occurred such that the procedures were performed within 1-6 h after dosing. The pH of the compound (as administered for nasal inhalation) was recorded prior to administration. As identified in the aerosol exposure the average pH of the nebulizer solution was 8.85.

[2] = system: nosebleeds; assay: Stanching nosebleeds at higher CGP levels; assay type: in vivo; settings: higher levels tested, about 7.5% (w/w) or above
[3] = system: histamine, leukotriene C4/D4/E4, prostaglandin D2 and E2 in nasal lavage fluid; assay: Mediators (histamine, leukotrienes, prostaglandins) in nasal lavage fluid after intranasal ragweed challenge; assay type: in vivo, Beagle dogs
Protocol: Ragweed sensitized beagle dogs (n=5) with preexisiting nasal and airway allergic responses were utilized in the animal study described in this Example. Dogs served as their own control and initially were treated with vehicle (sterile water) and then rested for 5 weeks prior to receiving the test compound. […] Based on the aerosol testing only 1.6 mg/dog could be delivered by inhalation during a 15 minute exposure (20 mg/ml solution). In addition, each dog received twice daily an intranasal instillation of 30 mg (2×375 μl of 20 mg/ml in each nostril) given within 30 minutes after the end of the inhalation exposures.
FIG. 1 summarizes the study design for characterizing the effects of CGP on rhinitis symptoms in ragweed sensitized Beagle dogs. The baseline nasal cavity volume was first measured 3 days (day −3) before each of the vehicle and CGP treatments. The dogs were treated with vehicle or CGP (day 0) twice daily with the target dosage described above. Three days into the vehicle or CGP treatment, nasal challenge with ragweed was performed (day 3). Treatment with vehicle or CGP continued during the assessment of rhinitis endpoints, e.g., total treatment duration=6 days (day 0-5) for each of the vehicle and CGP treatments. There were 5 weeks following the first intranasal RW challenge during the vehicle treatment and the CGP treatment.
as §1
Rhinitis assessments were conducted using one or more of the following tests. • Nasal cavity geometry (AcR) pre/post antigen challenge in both nares • 1. time 0 (just prior to RW instillation) • 2. at 15, 30, 45, 60, 75, 90 min, 24 h and 48 h post RW challenge • Nasal lavage of both nares at baseline and at 24 h (Day 4) and 48 h (Day 5) post RW instillation and only one side at 15, 30, 45 and 60 min post RW challenge (Day 3) • 1. Release of histamine, leukotrienes and prostaglandins in nasal lavage fluid baseline (prior to compound or RW treatment/challenge), 15, 30, 45, 60 min and 24 h post RW instillation • 2. Nasal lavage cells from the baseline (Day-3), 24 h (Day 4) and 48 h (Day 5) hour lavage were used for determination of inflammatory cell differentials • 3. Excess nasal lavage fluid was frozen for analysis of cytokines. • Cardiovascular readouts (heart rate, O2 saturation, body temperature) throughout nasal congestion measurement.
While under anesthesia a flexible plastic catheter was inserted several centimeters into the dog's nare. The nare was washed with a phosphate buffered saline solution (PBS; 3×5 ml for collection of cells [baseline, 24 and 48 h post RW challenge]; 1×5 ml for collection of fluid for mediators [15, 30, 45, and 60 minutes post RW challenge]).
Total nasal cells were determined using an automatic cell counter. Cells were spun onto slides by cytocentrifugation and stained with a modified Wright-Giemsa stain. At least four hundred inflammatory cells (or less if applicable) were counted and the percentage of specific cell types determined for each animal (slides in duplicates, 200 cells per slide). The first lavage fluid sample (after centrifugation) was frozen separately for mediator analysis. Mediator analysis for histamine, leukotrienes, and prostaglandins were performed according to the kit manufacturer instructions (Immunotech—Beckman Coulter Company #IM2015, Neogen Corporation #406410, Cayman Chemical Company: PGE2—#514010, PGD2—#512011, respectively). […]

[4] = system: human subject having asthma; assay: Application of CGP composition to a human subject having asthma; assay type: in vivo
Source text: A CGP composition similar to that described in Example 3, containing about 2% (w/w) CGP, was used in this study. A second human subject, a person having a life history of asthma, participated in this study.
The subject intentionally stopped using Advair Diskus (steroid) for about 2 weeks. Their allergies to molds were triggered by a ‘musty’ indoor environment resulting from several rainy and humid days. The allergies in turn triggered their asthma. The subject had felt a slight reduction in their airflow capacity for a few days, but had withheld use of albuterol inhaler (asthma rescue medication) during the day and only used it for severe wake-ups during the night. The subject had to use albuterol inhaler for three contiguous nights prior to the night described below.
In that night, at about 8:30 PM, the subject was experiencing difficulty breathing and wheezing, which signaled the start of an asthma attack. At about 8:35 PM, the subject applied two sprays of the CGP composition into each nostril and one spray of the CGP composition into their mouth for inhalation. An average spray delivery contained about 200 mg of the composition. […] At about 8:52 PM, the subject did two additional oral inhalations of the composition. At about 8:55 PM, the subject noticed that their wheeze and tightness in chest were relieved about 80% or more. All nasal drips had been sniffed back in. At about 8:58 PM, the subject perceived a gradual improvement and experienced no labor in breathing. At about 9:05 PM, the subject felt better, but desired full relief and wanted to increase breathing capacity. They applied one inhalation of the composition into each nostril; paused to get full breath, then applied two deep oral inhalations of the composition at about 9:07 PM. At about 9:27 PM, the subject felt fine and substantially back to normal. At about 9:37 PM, the subject felt improved. At about 10:16 PM, the subject felt fully (100%) recovered. At about 11:00 PM, the subject felt fine, no worry, and went to bed. […] At about 8:00 AM the next day, the subject felt a little tightness in chest. Instead of using 2 puffs of albuterol to start the day as they normally did, the subject used the CGP composition. They applied two sprays of the composition into each nostril and two sprays of the composition into their mouth for inhalation.

[5] = before and after ragweed challenge, vs vehicle, n=5, One Way Anova, Dunnett's posttest

## calcium glycerophosphate
[1]
  average pH of the nebulizer solution: 8.85
[2]
  stanching nosebleeds: may help in stanching nosebleeds
[3]; [5]
  histamine levels in nasal lavage fluid: no statistical significance was reached
  levels of leukotriene C4/D4/E4 in nasal lavage fluid: no statistical significance was reached
  prostaglandin D2 levels in nasal lavage fluid: no statistical significance was reached
  prostaglandin E2 levels in nasal lavage fluid: Levels of PGE2 decreased following ragweed challenge; also recorded: no statistical significance was reached
[3]; compound vs vehicle treatment, statistical significance not reached
  histamine, leukotriene and prostaglandin D2 and E2 levels in nasal lavage fluid: partially altered
[3]; vs vehicle, Two Way Anova p<0.009, no significance at individual time points
  prostaglandin E2 levels normalized to baseline (T0 = 100%): a greater reduction in PGE2 levels following RW challenge; also recorded: significantly attenuated compared to vehicle treatment
[3]; vs vehicle, n=5
  AUC of histamine levels between 0 and 60 min: histamine levels decreased in two of the 5 dogs, no statistical significance was reached
  AUC of prostaglandin D2 levels between 0 and 60 min: prostaglandin D2 levels decreased in three dogs and increased in two dogs and no statistical significance was reached
[4]; about 8:00 AM next day, two sprays each nostril and two sprays into mouth instead of albuterol
  relief of tightness in chest next morning: felt relief and no need to use the albuterol inhaler
[4]; about 8:40 PM, 5 min after first sprays, composition about 2% (w/w) CGP, one subject
  relief at start of an asthma attack: mild relief
[4]; about 8:55 PM, after nasal sprays and oral inhalations from 8:35 PM, about 2% (w/w) CGP
  wheeze and tightness in chest relieved: ≥ 80%
[4]; about 10:16 PM, first application 8:35 PM, about 2% (w/w) CGP
  subject felt recovered: 100%
[4]; night after the treated attack
  night wake-up and inhaler use: no wake-up with shortness of breath and did not use inhaler during the night
